Data taken from US10618912B2, “Diaryl macrocycles as modulators of protein kinases” (Turning Point Therapeutics, Inc., priority 2014, dated 2020).

Legend:
[1] = tested on: Ba/F3-EML4-ALK wild type cell line; assay: EML4-ALK Ba/F3 cell proliferation assay; format: cell-based; details: 48 hours incubation, read-out: EML4-ALK Ba/F3 cell proli. IC50
Protocol: The EML4-ALK wild-type gene (variant 1) was synthesized at GenScript and cloned into pCDH-CMV-MCS-EF1-Puro plasmid (System Biosciences, Inc). Ba/F3-EML4-ALK wild type cell line was generated by infecting Ba/F3 cells with lentivirus containing EML4-ALK wide-type. Stable cell lines were selected by puromycin treatment, followed by IL-3 withdrawal. 5000 cells were seeded in 384 well white plate overnight before compound treatment. Cell proliferation was measured using CellTiter-Glo luciferase-based ATP detection assay (Promega) following the manufactures's protocol after 48 hours of various concentration of compound incubation. IC50 determinations were performed using GraphPad Prism software (GraphPad, Inc., San Diego, Calif.).

KM12 cells = assay: Caspase activity assay; format: cell-based; details: 72 hours, caspase3 glo / PARP immunoblot
Protocol: KM12 cells were maintained in DMEM medium supplemented with 10% fetal bovine serum and antibiotics. 500,000 cells were seeded in 12-well plate and various concentration of compounds were introduced for 72 hours For staurosporine treatment, 500 nM of STS were added at time of 60 hours and incubation of 12 hours as a positive control. All the cells were collected and washed with 1×PBS twice and then lysed in a lysis buffer (20 mM HEPES, 150 mM NaCl, 10 mM KCl, 5 mM EDTA, 1% NP40) supplemented with Halt protease and phosphatase inhibitors (Thermo Scientific). For caspase assays, around 20 μL (20 μg) of cell lysate were incubated with 20 μL, of caspase3 glo reagent (Promega), measuring enzyme activity by the release of luminescence after 20 min incubation at 37° C. For western blotting, cell lysates were boiled and analyzed by SDS-PAGE/immunoblotting using PARP, or actin antibodies.

Structure (SMILES) | IC50 [1] [nM] | apoptosis of KM 12 cells (KM12 cells)
C[C@H]1Nc2ccn3ncc(c3n2)C(=O)NCCOc2ccc(F)cc21 [Example 51-1, (13R)-11-fluoro-13-methyl-6,7,13,14-tetrahydro-1,15-ethenopyrazolo[4,3-f][1,4,8,10]benzoxatriazacyclotridecin-4(5H)-one] | 248 | –
C[C@H]1CNC(=O)c2cnn3ccc(nc23)N[C@H](C)c2cc(F)ccc2O1 [Example 93, (7S,13R)-11-fluoro-7,13-dimethyl-6,7,13,14-tetrahydro-1,15-ethenopyrazolo[4,3-f][1,4,8,10]benzoxatriazacyclotridecin-4(5H)-one] | 21.1 | –
CN1Cc2cc(F)ccc2OCCNC(=O)c2cnn3ccc1nc23 [Example 20, 11-fluoro-14-methyl-6,7,13,14-tetrahydro-1,15-ethenopyrazolo[4,3-f][1,4,8,10]benzoxatriazacyclo-tridecin-4(5H)-one] | – | induced apoptosis
C[C@@H]1CNC(=O)c2cnn3ccc(nc23)N[C@H](C)c2cc(F)ccc2O1 [Example 92, (7R,13R)-11-fluoro-7,13-dimethyl-6,7,13,14-tetrahydro-1,15-ethenopyrazolo[4,3-f][1,4,8,10]benzoxatriazacyclotridecin-4(5H)-one] | 78.6 | –
